Patent US20050154230A1, “Urea derivatives” (Bayer HealthCare AG, priority 2001, published 2005)
Where two headings read alike, the source gives them in different places.

What was measured:
human VR1 = target: T1, human VR1 (Homo sapiens, UniProt Q8NER1); assay: Capsaicin-induced Ca2+ influx in the human VR1-transfected CHO cell line (Assay 1); assay type: cell-based
T1 construct: expressed in transfected cells
Outline: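 CHO cells expressing human VR1 with an aequorin reporter were treated with compound or vehicle for 20 min at 25° C. Capsaicin-induced Ca^2+ influx was then measured on an FDSS-3000. Integral R was calculated and compared with controls.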

[1] = human VR1-CHOluc9aeq cells, 10 nM capsaicin, compound purity about 40 to 90%, read-out: hVR1 class

T1 sequence (Q8NER1 whole entry): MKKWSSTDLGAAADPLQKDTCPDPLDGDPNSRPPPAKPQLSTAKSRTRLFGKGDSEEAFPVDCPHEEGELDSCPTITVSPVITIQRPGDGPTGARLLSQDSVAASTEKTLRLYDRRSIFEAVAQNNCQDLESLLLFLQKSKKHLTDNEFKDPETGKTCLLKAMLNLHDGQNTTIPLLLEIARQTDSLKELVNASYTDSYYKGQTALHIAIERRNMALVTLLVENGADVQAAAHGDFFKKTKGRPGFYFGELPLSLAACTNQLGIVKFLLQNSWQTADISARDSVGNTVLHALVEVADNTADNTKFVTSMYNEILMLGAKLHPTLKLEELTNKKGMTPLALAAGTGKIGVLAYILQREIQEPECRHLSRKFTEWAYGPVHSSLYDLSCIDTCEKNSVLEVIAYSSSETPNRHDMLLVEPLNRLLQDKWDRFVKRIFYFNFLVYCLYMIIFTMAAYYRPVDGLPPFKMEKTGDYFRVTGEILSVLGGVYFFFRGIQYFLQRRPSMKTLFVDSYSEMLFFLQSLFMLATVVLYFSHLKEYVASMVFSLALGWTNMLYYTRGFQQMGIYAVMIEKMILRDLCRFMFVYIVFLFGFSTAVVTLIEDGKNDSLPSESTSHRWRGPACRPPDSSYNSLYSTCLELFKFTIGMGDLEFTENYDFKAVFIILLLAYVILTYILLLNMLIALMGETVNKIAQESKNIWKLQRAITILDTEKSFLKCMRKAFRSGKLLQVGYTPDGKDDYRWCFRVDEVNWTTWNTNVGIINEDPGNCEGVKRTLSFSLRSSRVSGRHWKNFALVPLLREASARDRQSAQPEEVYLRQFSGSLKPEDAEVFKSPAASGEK

SMILES | melting point | IC50 (human VR1; [1]) | IC50 (human VR1)
COc1cc(CNC(=O)Nc2ccc(Cl)c(C(F)(F)F)c2)ccc1O [Example 55] | 193 °C | < 100 nM | –
COc1cc(CNC(=O)Nc2ccc(F)c([N+](=O)[O-])c2)ccc1O [Example 66] | 184 °C | – | 100 to 500 nM
O=C(Nc1cccc(-c2cccc(Cl)c2)c1)Nc1ccccc1CCO [Example 195] | 175 °C | < 100 nM | –
O=C(Nc1cccc(-c2cc(Cl)cc(Cl)c2)c1)Nc1ccccc1CCO [Example 217] | 184 °C | < 100 nM | –

More lines, main results first:

melting point | IC50 (human VR1; [1]) | SMILES | IC50 (human VR1)
226 °C | 500 to 1000 nM | Cc1cccc(C)c1NC(=O)Nc1ccccc1CCO [Example 116] | –
141 to 143 °C | 500 to 1000 nM | O=C(NCc1ccccc1F)Nc1ccccc1CCO [Example 119] | –
185 °C | 500 to 1000 nM | O=C(Nc1ccc(F)c([N+](=O)[O-])c1)Nc1ccccc1CCO [Example 111] | –
